This note sets out measurements from patent US20230391760A1, “HETEROCYCLIC GLP-1 AGONISTS” (Gasherbrum Bio, Inc., priority 2020, published 2023).

In the test the target is GLP-1 Receptor (Homo sapiens, UniProt P43220). The test can be described thus: GLP-1R agonist cAMP stimulation assay (HEK293/GLP1R/CRE-LUC cells, cAMP dynamic 2 Kit). Particulars: HEK293/CRE-Luc cell line stably expressing the GLP-1 Receptor, 30 min at 37° C. In kind it is cell-based. In a few lines: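 cAMP measured by HTRF competition (d2-labelled cAMP with cryptate antibody, 1 h, room temperature, protected from light). Before that, GLP1R/CRE-Luc HEK293 cells (1000/well) were exposed for 30 min at 37 °C to half-log compound dilutions in DPBS containing IBMX 0.5 mM and BSA 0.1%.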
Sequence of GLP-1 Receptor (P43220 24-463, species assumed): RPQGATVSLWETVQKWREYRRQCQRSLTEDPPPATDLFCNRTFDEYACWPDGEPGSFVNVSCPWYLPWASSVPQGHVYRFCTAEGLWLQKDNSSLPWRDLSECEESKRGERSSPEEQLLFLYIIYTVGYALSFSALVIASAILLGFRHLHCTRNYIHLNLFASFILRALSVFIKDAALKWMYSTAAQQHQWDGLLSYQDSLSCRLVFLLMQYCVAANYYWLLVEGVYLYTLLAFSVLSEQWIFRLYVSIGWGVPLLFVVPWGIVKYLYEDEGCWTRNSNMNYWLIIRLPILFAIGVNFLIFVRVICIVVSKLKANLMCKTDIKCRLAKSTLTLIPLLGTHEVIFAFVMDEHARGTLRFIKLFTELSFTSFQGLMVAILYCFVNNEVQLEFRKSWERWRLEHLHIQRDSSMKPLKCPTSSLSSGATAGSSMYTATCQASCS

One may read the EC50 as the concentration needed to bring the measured effect to its halfway point. Higher therefore signals a less potent agent. Consider `O=c1[nH]c(-c2cnc3c(c2)nc(CN2CCC(c4cccc(OCc5ccc(Cl)cc5F)n4)CC2)n3C[C@@H]2CCO2)no1` [Compound 328a, 3-{2-[(4-{6-[(4-chloro-2-fluorophenyl)methoxy]pyridin-2-yl}piperidin-1-yl)methyl]-3-{[(2S)-oxetan-2-yl]methyl}-3H-imidazo[4,5-b]pyridin-6-yl}-4,5-dihydro-1,2,4-oxadiazol-5-one], for which the half-maximal effective concentration (EC50) worked out at 370 pM.

`CC1(c2ccc(Cl)cc2F)Oc2cccc(C3CCN(Cc4nc5cc(-c6cn[nH]c6)ccc5n4C[C@@H]4CCO4)CC3)c2O1` (stereo partly drawn) [Compound 234a, 2-((4-(2-(4-chloro-2-fluorophenyl)-2-methylbenzo[d][1,3]dioxol-4-yl)piperidin-1-yl)methyl)-1-(((S)-oxetan-2-yl)methyl)-5-(1H-pyrazol-4-yl)-1H-benzo[d]imidazole] registered a concentration giving a half-maximal response (EC50) of 3700 pM.

Molecule `C[C@H]1CN(c2ncc(F)c(OCc3ccc(Cl)cc3F)n2)CCN1Cc1nc2cc(-c3nnc(C(F)(F)F)[nH]3)ncc2n1C[C@@H]1CCO1` [Compound 489a, 4-[(4-chloro-2-fluorophenyl)methoxy]-5-fluoro-2-[(3S)-3-methyl-4-[(3-{[(2S)-oxetan-2-yl]methyl}-6-[5-(trifluoromethyl)-4H-1,2,4-triazol-3-yl]-3H-imidazo[4,5-c]pyridin-2-yl)methyl]piperazin-1-yl]pyrimidine] came in with an EC50 of 87 pM.

Turning to `Fc1cc(Cl)ccc1COc1ncc(F)c(C2=CCC(Cc3nc4cc(-c5nnn[nH]5)ccc4n3C[C@@H]3CCO3)CC2)n1` (stereo partly drawn) [Compound 241a, 2-((4-(2-((4-chloro-2-fluorobenzyl)oxy)-5-fluoropyrimidin-4-yl)cyclohex-3-en-1-yl)methyl)-1-(((S)-oxetan-2-yl)methyl)-5-(1H-tetrazol-5-yl)-1H-benzo[d]imidazole], the midpoint of the response, the EC50, lay at 320 pM.

In turn, `C[C@H]1CN(c2ncc(F)c(OCc3ccc(Cl)cc3F)n2)CCN1Cc1nc2cc(-c3nnc(C(F)(F)F)[nH]3)cnc2n1C[C@@H]1CCO1` [Compound 527a, 4-[(4-chloro-2-fluorophenyl)methoxy]-5-fluoro-2-[(3S)-3-methyl-4-[(3-{[(2S)-oxetan-2-yl]methyl}-6-[5-(trifluoromethyl)-4H-1,2,4-triazol-3-yl]-3H-imidazo[4,5-b]pyridin-2-yl)methyl]piperazin-1-yl]pyrimidine] came in with a 50% effective concentration (EC50) of 33 pM.

Molecule `CC1(c2ccc(Cl)cc2)Oc2cccc(C3CCN(Cc4nc5cc(-c6nnc(C(F)(F)F)[nH]6)ncc5n4C[C@@H]4CCO4)CC3)c2O1` (stereo partly drawn) [Compound 361a, 4-[2-(4-chlorophenyl)-2-methyl-2H-1,3-benzodioxol-4-yl]-1-[(3-{[(2S)-oxetan-2-yl]methyl}-6-[5-(trifluoromethyl)-4H-1,2,4-triazol-3-yl]-3H-imidazo[4,5-c]pyridin-2-yl)methyl]piperidine] came in with a 50% effective concentration (EC50) of 34 pM.

On to `C[C@]1(c2ccc(C#N)cc2F)Oc2cccc(C3CCN(Cc4nc5cc(-c6nnc(C(F)(F)F)[nH]6)nnc5n4C[C@@H]4CCO4)CC3)c2O1` [Compound 447a, 3-fluoro-4-[(2S)-2-methyl-4-{1-[(7-{[(2S)-oxetan-2-yl]methyl}-3-[5-(trifluoromethyl)-4H-1,2,4-triazol-3-yl]-7H-imidazo[4,5-c]pyridazin-6-yl)methyl]piperidin-4-yl}-2H-1,3-benzodioxol-2-yl]benzonitrile], for which the midpoint of the response, the EC50, lay at 19 pM.

With `CC1(c2ccc(Cl)cc2F)Oc2cccc(C3CCN(Cc4nc5cc(-c6nnc(C(F)F)[nH]6)ccc5n4C[C@@H]4CCO4)CC3)c2O1` (stereo partly drawn) [Compound 227a, 2-({4-[2-(4-chloro-2-fluorophenyl)-2-methyl-2H-1,3-benzodioxol-4-yl]piperidin-1-yl}methyl)-5-[5-(difluoromethyl)-4H-1,2,4-triazol-3-yl]-1-{[(2S)-oxetan-2-yl]methyl}-1H-1,3-benzodiazole], the concentration giving a half-maximal response (EC50) came to 94 pM.

Consider `Fc1cc(Cl)ccc1COc1cc(N2CCN(Cc3nc4cc(-c5nnc(C(F)(F)F)[nH]5)ncc4n3C[C@@H]3CCO3)CC2)ccc1F` [Compound 456a, 1-{3-[(4-chloro-2-fluorophenyl)methoxy]-4-fluorophenyl}-4-[(3-{[(2S)-oxetan-2-yl]methyl}-6-[5-(trifluoromethyl)-4H-1,2,4-triazol-3-yl]-3H-imidazo[4,5-c]pyridin-2-yl)methyl]piperazine], for which a half-maximal effect (EC50) was put at 85 pM.

In turn, `CC1(c2ccc(Cl)cc2F)Oc2cccc(C3CCN(Cc4nc5cc(-c6n[nH]c(=O)o6)ccc5n4C[C@@H]4CCO4)CC3)c2O1` (stereo partly drawn) [Compound 219a, 5-[2-({4-[2-(4-chloro-2-fluorophenyl)-2-methyl-2H-1,3-benzodioxol-4-yl]piperidin-1-yl}methyl)-1-{[(2S)-oxetan-2-yl]methyl}-1H-1,3-benzodiazol-5-yl]-2,3-dihydro-1,3,4-oxadiazol-2-one] registered a 50% effective concentration (EC50) of 1600 pM.

As to `O=S1(=O)CCCN1c1ccc2c(c1)nc(CN1CCC(c3cccc(OCc4ccc(Cl)cc4F)n3)CC1)n2C[C@@H]1CCO1` [Compound 118a, (S)-2-(2-((4-(6-((4-chloro-2-fluorobenzyl)oxy)pyridin-2-yl)piperidin-1-yl)methyl)-1-(oxetan-2-ylmethyl)-1H-benzo[d]imidazol-5-yl)isothiazolidine 1,1-dioxide], the EC50 worked out at 10000 pM.

Regarding `CO[C@H](C)Cn1c(CN2CCC(c3cccc4c3O[C@@](C)(c3ccc(Cl)cc3F)O4)CC2)nc2cc(-c3nnc(C(F)(F)F)[nH]3)nnc21` [Compound 452a, 4-[(2S)-2-(4-chloro-2-fluorophenyl)-2-methyl-2H-1,3-benzodioxol-4-yl]-1-({7-[(2R)-2-methoxypropyl]-3-[5-(trifluoromethyl)-4H-1,2,4-triazol-3-yl]-7H-imidazo[4,5-c]pyridazin-6-yl}methyl)piperidine], the 50% effective concentration (EC50) was determined as 140 pM.

As to `CC1(c2ccc(Cl)cc2F)Oc2cccc(C3CCN(Cc4nc5cc(-c6nnc(C(F)F)[nH]6)cnc5n4C[C@@H]4CCO4)CC3)c2O1` (stereo partly drawn) [Compound 244a, 4-[2-(4-chloro-2-fluorophenyl)-2-methyl-2H-1,3-benzodioxol-4-yl]-1-({6-[5-(difluoromethyl)-4H-1,2,4-triazol-3-yl]-3-{[(2S)-oxetan-2-yl]methyl}-3H-imidazo[4,5-b]pyridin-2-yl}methyl)piperidine], a half-maximal effect (EC50) was put at 140 pM.

In turn, `CC1(c2ccc(Cl)cc2F)Oc2cccc(C3CCN(Cc4nc5cc(-c6n[nH]c(=O)[nH]6)ccc5n4C[C@@H]4CCO4)CC3)c2O1` (stereo partly drawn) [Compound 355a, 3-[2-({4-[2-(4-chloro-2-fluorophenyl)-2-methyl-2H-1,3-benzodioxol-4-yl]piperidin-1-yl}methyl)-1-{[(2S)-oxetan-2-yl]methyl}-1H-1,3-benzodiazol-5-yl]-4,5-dihydro-1H-1,2,4-triazol-5-one] returned an EC50 of 7000 pM.

The molecule `O=C(O)Cc1ccc2c(c1)nc(CN1CC=C(c3cccc(OCc4ccc(Cl)cc4F)n3)CC1)n2C[C@@H]1CCO1` [Compound 112a, (S)-2-(2-((6-((4-chloro-2-fluorobenzyl)oxy)-3′,6′-dihydro-[2,4′-bipyridin]-1′(2′H)-yl)methyl)-1-(oxetan-2-ylmethyl)-1H-benzo[d]imidazol-5-yl)acetic acid] returned an EC50 of 6350 pM.

The molecule `C[C@]1(c2ccc(Cl)cc2F)Oc2cccc(C3CCN(Cc4nc5cc(-c6noc(=O)[nH]6)cnc5n4C[C@@H]4CCOC4)CC3)c2O1` [Compound 398a, 3-[2-({4-[(2S)-2-(4-chloro-2-fluorophenyl)-2-methyl-2H-1,3-benzodioxol-4-yl]piperidin-1-yl}methyl)-3-{[(3S)-oxolan-3-yl]methyl}-3H-imidazo[4,5-b]pyridin-6-yl]-4,5-dihydro-1,2,4-oxadiazol-5-one] returned a concentration for a half-maximal effect (EC50) of 4300 pM.

Consider `Fc1cc(Cl)ccc1COc1nc(N2CCN(Cc3nc4cc(-c5nnc(C(F)(F)F)[nH]5)cnc4n3C[C@@H]3CCO3)CC2)ccc1F` [Compound 516a, 1-{6-[(4-chloro-2-fluorophenyl)methoxy]-5-fluoropyridin-2-yl}-4-[(3-{[(2S)-oxetan-2-yl]methyl}-6-[5-(trifluoromethyl)-4H-1,2,4-triazol-3-yl]-3H-imidazo[4,5-b]pyridin-2-yl)methyl]piperazine], for which the midpoint of the response, the EC50, lay at 18 pM.

Regarding `Cn1cc(-c2ccc3c(c2)nc(CN2CCC(c4cccc5c4OC(C)(c4ccc(Cl)cc4F)O5)CC2)n3C[C@@H]2CCO2)nn1` (stereo partly drawn) [Compound 238a, 2-((4-(2-(4-chloro-2-fluorophenyl)-2-methylbenzo[d][1,3]dioxol-4-yl)piperidin-1-yl)methyl)-5-(1-methyl-1H-1,2,3-triazol-4-yl)-1-(((S)-oxetan-2-yl)methyl)-1H-benzo[d]imidazole], the EC50 was found to be 120 pM.

`C[C@]1(c2ccc(Cl)cc2F)Oc2cccc(C3CCN(Cc4nc5cc(-c6nnc(C(F)(F)F)[nH]6)ccc5n4CC4(C#N)CC4)CC3)c2O1` [Compound 412a, 1-{[2-({4-[(2S)-2-(4-chloro-2-fluorophenyl)-2-methyl-2H-1,3-benzodioxol-4-yl]piperidin-1-yl}methyl)-5-[5-(trifluoromethyl)-4H-1,2,4-triazol-3-yl]-1H-1,3-benzodiazol-1-yl]methyl}cyclopropane-1-carbonitrile] registered an EC50 of 33 pM.

For `O=c1[nH]c(-c2cc3nc(CN4CCC(c5ccnc(OCc6ccc(Cl)cc6F)n5)CC4)n(C[C@@H]4CCO4)c3cn2)no1` [Compound 460a, 3-{2-[(4-{2-[(4-chloro-2-fluorophenyl)methoxy]pyrimidin-4-yl}piperidin-1-yl)methyl]-3-{[(2S)-oxetan-2-yl]methyl}-3H-imidazo[4,5-c]pyridin-6-yl}-4,5-dihydro-1,2,4-oxadiazol-5-one], the concentration giving a half-maximal response (EC50) amounted to 150 pM.

Molecule `C[C@]1(c2ccc(Cl)cc2F)Oc2cccc(C3CCN(Cc4nc5cc(-c6noc(=O)[nH]6)ncc5n4CC4(C#N)CC4)CC3)c2O1` [Compound 346a, 1-{[2-({4-[(2S)-2-(4-chloro-2-fluorophenyl)-2-methyl-2H-1,3-benzodioxol-4-yl]piperidin-1-yl}methyl)-6-(5-oxo-4,5-dihydro-1,2,4-oxadiazol-3-yl)-3H-imidazo[4,5-c]pyridin-3-yl]methyl}cyclopropane-1-carbonitrile] had an EC50 of 15 pM.
